Test results taken from PubChem BioAssay (NCI).
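All cell lines were grown in 96-well plates and treated with compound for 48 hours. GI50 marks 50% less growth. The concentration for full growth arrest is given as TGI.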

Key:
Experiment in all cases: growth of human tumour cells (NCI), 48 h
ACHN renal = system: ACHN renal
SN12C renal = system: SN12C renal
SK-MEL-28 melanoma = system: SK-MEL-28 melanoma
U251 CNS = system: U251 CNS
HOP-62 NSCLC = system: HOP-62 NSCLC
CCRF-CEM leukemia = system: CCRF-CEM leukemia
HCT-116 colon = system: HCT-116 colon
MDA-MB-435 = system: MDA-MB-435
HT29 colon = system: HT29 colon
SF-295 CNS = system: SF-295 CNS
NCI-H522 lung = system: NCI-H522 lung
CAKI-1 renal = system: CAKI-1 renal
SNB-19 CNS = system: SNB-19 CNS
SNB-75 CNS = system: SNB-75 CNS
EKVX NSCLC = system: EKVX NSCLC
SF-539 CNS = system: SF-539 CNS
NCI-H460 lung = system: NCI-H460 lung
KM12 colon = system: KM12 colon
BT-549 breast = system: BT-549 breast
MCF7 breast = system: MCF7 breast
UO-31 renal = system: UO-31 renal
MALME-3M melanoma = system: MALME-3M melanoma
RXF 393 renal = system: RXF 393 renal
SF-268 CNS = system: SF-268 CNS
UACC-257 melanoma = system: UACC-257 melanoma
A549 NSCLC = system: A549 NSCLC
HS 578T breast = system: HS 578T breast
DU-145 prostate = system: DU-145 prostate
MDA-MB-231 breast = system: MDA-MB-231 breast
PC-3 prostate = system: PC-3 prostate
SR leukemia = system: SR leukemia
HOP-92 NSCLC = system: HOP-92 NSCLC
OVCAR-4 ovarian = system: OVCAR-4 ovarian
IGROV1 ovarian = system: IGROV1 ovarian
OVCAR-8 ovarian = system: OVCAR-8 ovarian
SW-620 colon = system: SW-620 colon
SK-MEL-5 melanoma = system: SK-MEL-5 melanoma
786-0 renal = system: 786-0 renal
RPMI-8226 leukemia = system: RPMI-8226 leukemia
K-562 leukemia = system: K-562 leukemia
HCT-15 colon = system: HCT-15 colon
M14 melanoma = system: M14 melanoma
HL-60(TB) leukemia = system: HL-60(TB) leukemia
NCI-H226 lung = system: NCI-H226 lung
SK-MEL-2 melanoma = system: SK-MEL-2 melanoma
HCC-2998 colon = system: HCC-2998 colon
COLO 205 colon = system: COLO 205 colon
OVCAR-5 ovarian = system: OVCAR-5 ovarian
MOLT-4 leukemia = system: MOLT-4 leukemia
OVCAR-3 ovarian = system: OVCAR-3 ovarian
NCI/ADR-RES ovarian = system: NCI/ADR-RES ovarian
UACC-62 melanoma = system: UACC-62 melanoma
LOX IMVI melanoma = system: LOX IMVI melanoma
NCI-H23 lung = system: NCI-H23 lung
TK-10 renal = system: TK-10 renal
SK-OV-3 ovarian = system: SK-OV-3 ovarian
T-47D breast = system: T-47D breast

O=C1C=CC(=C(c2ccccc2)c2ccc(O)cc2)C=C1
TGI (ACHN renal): 39.2 µM
TGI (SN12C renal): 29.7 µM
TGI (SK-MEL-28 melanoma): 31.9 µM
TGI (U251 CNS): 29.2 µM
TGI (HOP-62 NSCLC): > 100 µM
TGI (CCRF-CEM leukemia): > 100 µM
TGI (HCT-116 colon): > 100 µM
TGI (MDA-MB-435): 32.5 µM
TGI (HT29 colon): 43.4 µM
TGI (SF-295 CNS): 39.6 µM
TGI (NCI-H522 lung): 28.2 µM
TGI (CAKI-1 renal): 32.1 µM
TGI (SNB-19 CNS): 31.7 µM
TGI (SNB-75 CNS): 38.2 µM
TGI (EKVX NSCLC): 35.9 µM
TGI (SF-539 CNS): 30.8 µM
TGI (NCI-H460 lung): 41.7 µM
TGI (KM12 colon): 41.5 µM
TGI (BT-549 breast): 18.7 µM
TGI (MCF7 breast): 37.1 µM
TGI (UO-31 renal): 29.5 µM
TGI (MALME-3M melanoma): 28.6 µM
TGI (RXF 393 renal): 30.5 µM
TGI (SF-268 CNS): 43.3 µM
TGI (UACC-257 melanoma): 31.7 µM
TGI (A549 NSCLC): 36.8 µM
TGI (HS 578T breast): 47.7 µM
TGI (DU-145 prostate): 53.6 µM
TGI (MDA-MB-231 breast): 32.4 µM
TGI (PC-3 prostate): 47.5 µM
TGI (SR leukemia): 40.8 µM
TGI (HOP-92 NSCLC): 36.1 µM
TGI (OVCAR-4 ovarian): 30.2 µM
TGI (IGROV1 ovarian): 22.5 µM
TGI (OVCAR-8 ovarian): 44.1 µM
TGI (SW-620 colon): 90.9 µM
TGI (SK-MEL-5 melanoma): 26.4 µM
TGI (786-0 renal): > 100 µM
TGI (RPMI-8226 leukemia): > 100 µM
TGI (K-562 leukemia): 68.1 µM
TGI (HCT-15 colon): 35.3 µM
TGI (M14 melanoma): 91.6 µM
TGI (HL-60(TB) leukemia): 47.2 µM
TGI (NCI-H226 lung): 38 µM
TGI (SK-MEL-2 melanoma): 32 µM
TGI (HCC-2998 colon): 63.9 µM
TGI (COLO 205 colon): 49.7 µM
TGI (OVCAR-5 ovarian): 49.7 µM
TGI (MOLT-4 leukemia): > 100 µM
TGI (OVCAR-3 ovarian): 32.5 µM
TGI (NCI/ADR-RES ovarian): > 100 µM
TGI (UACC-62 melanoma): 28.9 µM
TGI (LOX IMVI melanoma): 17.9 µM
TGI (NCI-H23 lung): 42.9 µM
TGI (TK-10 renal): 37.4 µM

N#CC1=C(N)NC(=S)NC12Nc1ccccc1S2 (stereo unspecified)
GI50 (ACHN renal): 21.8 µM
TGI (ACHN renal): 74.3 µM
GI50 (SN12C renal): 20.5 µM
TGI (SN12C renal): 63.6 µM
GI50 (SK-MEL-28 melanoma): 26.3 µM
TGI (SK-MEL-28 melanoma): 66.9 µM
GI50 (U251 CNS): 21.4 µM
TGI (U251 CNS): 79.8 µM
GI50 (CCRF-CEM leukemia): 15.1 µM
TGI (CCRF-CEM leukemia): 53.3 µM
GI50 (HCT-116 colon): > 100 µM
TGI (HCT-116 colon): > 100 µM
GI50 (MDA-MB-435): 19.2 µM
TGI (MDA-MB-435): 47.6 µM
GI50 (HT29 colon): 31 µM
TGI (HT29 colon): > 100 µM
GI50 (SF-295 CNS): 11.5 µM
TGI (SF-295 CNS): 31.7 µM
GI50 (NCI-H522 lung): 21.3 µM
TGI (NCI-H522 lung): 70.5 µM
GI50 (CAKI-1 renal): 15 µM
TGI (CAKI-1 renal): 45 µM
GI50 (SNB-19 CNS): 28.1 µM
TGI (SNB-19 CNS): > 100 µM
GI50 (SNB-75 CNS): 30.4 µM
TGI (SNB-75 CNS): > 100 µM
GI50 (EKVX NSCLC): 3.71 µM
TGI (EKVX NSCLC): 37.9 µM
GI50 (SF-539 CNS): 14.7 µM
TGI (SF-539 CNS): 41.4 µM
GI50 (NCI-H460 lung): 17 µM
TGI (NCI-H460 lung): 45.8 µM
GI50 (KM12 colon): 24.9 µM
TGI (KM12 colon): 75.5 µM
GI50 (BT-549 breast): 18.6 µM
TGI (BT-549 breast): 53 µM
GI50 (UO-31 renal): 35.8 µM
TGI (UO-31 renal): > 100 µM
GI50 (MALME-3M melanoma): 24.2 µM
TGI (MALME-3M melanoma): 56.8 µM
GI50 (RXF 393 renal): 33.8 µM
TGI (RXF 393 renal): > 100 µM
GI50 (UACC-257 melanoma): 29 µM
TGI (UACC-257 melanoma): > 100 µM
GI50 (A549 NSCLC): 37.7 µM
TGI (A549 NSCLC): > 100 µM
GI50 (DU-145 prostate): 17.2 µM
TGI (DU-145 prostate): > 100 µM
GI50 (MDA-MB-231 breast): 16.4 µM
TGI (MDA-MB-231 breast): 70.6 µM
GI50 (PC-3 prostate): 22 µM
TGI (PC-3 prostate): 71.7 µM
GI50 (SR leukemia): 15.8 µM
TGI (SR leukemia): 46.8 µM
GI50 (HOP-92 NSCLC): 22.4 µM
TGI (HOP-92 NSCLC): > 100 µM
GI50 (OVCAR-4 ovarian): 81.4 µM
TGI (OVCAR-4 ovarian): > 100 µM
GI50 (IGROV1 ovarian): 23.3 µM
TGI (IGROV1 ovarian): > 100 µM
GI50 (OVCAR-8 ovarian): 39.6 µM
TGI (OVCAR-8 ovarian): > 100 µM
GI50 (SW-620 colon): 36.7 µM
TGI (SW-620 colon): > 100 µM
GI50 (SK-MEL-5 melanoma): 19.6 µM
TGI (SK-MEL-5 melanoma): 54.9 µM
GI50 (786-0 renal): > 100 µM
TGI (786-0 renal): > 100 µM
GI50 (RPMI-8226 leukemia): 22.2 µM
TGI (RPMI-8226 leukemia): > 100 µM
GI50 (K-562 leukemia): 30.3 µM
TGI (K-562 leukemia): > 100 µM
GI50 (HCT-15 colon): 28.9 µM
TGI (HCT-15 colon): > 100 µM
GI50 (SK-OV-3 ovarian): 37.1 µM
TGI (SK-OV-3 ovarian): > 100 µM
GI50 (M14 melanoma): 40.1 µM
TGI (M14 melanoma): > 100 µM
GI50 (HL-60(TB) leukemia): 33.6 µM
TGI (HL-60(TB) leukemia): 79.2 µM
GI50 (NCI-H226 lung): 31.2 µM
TGI (NCI-H226 lung): > 100 µM
GI50 (SK-MEL-2 melanoma): 44.2 µM
TGI (SK-MEL-2 melanoma): > 100 µM
GI50 (HCC-2998 colon): 33 µM
TGI (HCC-2998 colon): > 100 µM
GI50 (COLO 205 colon): 24.8 µM
TGI (COLO 205 colon): 82.6 µM
GI50 (OVCAR-5 ovarian): 75.7 µM
TGI (OVCAR-5 ovarian): > 100 µM
GI50 (MOLT-4 leukemia): 28.8 µM
TGI (MOLT-4 leukemia): > 100 µM
GI50 (OVCAR-3 ovarian): 14.6 µM
TGI (OVCAR-3 ovarian): 38.1 µM
GI50 (NCI/ADR-RES ovarian): 26.7 µM
TGI (NCI/ADR-RES ovarian): 88.7 µM
GI50 (UACC-62 melanoma): 19.7 µM
TGI (UACC-62 melanoma): 55.8 µM
GI50 (T-47D breast): 29.9 µM
TGI (T-47D breast): > 100 µM
GI50 (LOX IMVI melanoma): 17 µM
TGI (LOX IMVI melanoma): 44.7 µM
GI50 (NCI-H23 lung): 31.4 µM
TGI (NCI-H23 lung): > 100 µM
GI50 (TK-10 renal): 41.5 µM
TGI (TK-10 renal): > 100 µM
